# “Also recorded” adds a separate entry of the source.
# Tests used:
# Hb9::GFP MNs [1] = assay: MN morphology analysis of surviving MNs; type: cell-based, mouse; settings: absence of trophic factors, extended time point
# From the text: (§1) To examine whether MNs kept alive by AKIs maintain morphological integrity we carried out a series of analyses on surviving MNs in the absence of trophic factors. […] We also used an automated imager to analyze the number of synapses per MN by counting co-localized regions positive for the presynaptic marker synapsin and the postsynaptic marker PSD-95.
# SOD1^G93A/Hb9::GFP MNs [2] = assay: MN morphology analysis of surviving MNs; type: cell-based, mouse; settings: absence of trophic factors, extended time point
# From the text: as §1
# Hb9::GFP MNs [3] = assay: MN survival in co-culture with primary WT or SOD1^G93A astrocytes; type: cell-based, mouse; settings: Hb9::GFP MNs on WT or SOD1^G93A astrocytes
# Experimental: (§2) We sought to examine whether AKIs decrease the toxic effect of SOD1^G93A mutant astrocytes. We first cultured primary astrocytes from wild type (WT) and SOD1^G93A mice and plated FACS purified MNs on top. We observed significant cell death when MNs were cultured on mutated astrocytes compared to WT astrocytes. ZM447439 improved both Hb9::GFP and SOD1^G93A/Hb9::GFP MN survival.
# SOD1^G93A/Hb9::GFP MNs [4] = assay: as above; type: cell-based, mouse
# Experimental: as §2
# [5] = tested on: SOD1^G93A (SOD1^G93A/Hb9::GFP) mouse ESC derived MNs; assay: MN survival after trophic factor withdrawal, mixed culture; type: cell-based
# From the text: (§3) In the present study, we have screened highly specific small molecule kinase inhibitors to identify those which could promote MN survival. For the screen, we generated MNs from wild-type (Hb9::GFP) and SOD1^G93A (SOD1^G93A/Hb9::GFP) mouse ESCs using published protocols (Di Giorgio et al., 2007). We withdrew trophic factors as a standard method to induce MN death. Cell plating density as well as timing for initiation and duration of trophic factor withdrawal were used exactly as published to achieve ˜80% MN death in 3 days (FIG. 1A) (Yang et al., 2013). […] We continued to work with this compound class as it reproducibly promoted survival of both MNs types and the effect was robust. We further reasoned that since this compound class promoted survival of both MN types, the probability of its working in other contexts such as on human MNs and in the ALS mouse model was maximum.
# High expression of Aurora kinases is associated with various types of cancer (Sen et al., 1997; Reichardt et al., 2003; Tchatchou et al., 2007) and there are many AKIs including VX-680 and ZM447439 that are in clinical trials for anti-cancer drug development.
# (§4) Trophic factors were removed and ZM447439 was added to the cultures as previously and MN survival was analyzed on day 7, 14 & 21.
# iPSC-derived MN lines [6] = assay: Morphology of iPSC-derived MNs; type: cell-based, human; settings: all iPSC-derived MN lines, absence of trophic factor
# From the text: (§5) We produced MNs from human iPSCs lines including a healthy control, two ALS patients expressing confirmed mutations in SOD1 (Boulting et al., 2011), two with mutations in TDP-43 and one in C90RF72. We treated these cultures with AraC to minimize the number of proliferating progenitors. […] We also examined the effect of SOD 1^G93A astrocytes co-culture on iPSC derived MNs. We found no toxic effect on survival in any of the patient iPSC derived MNs, but we did observe decreased MN survival in the control iPSC derived MNs. […] We also looked at the effect of AKIs on morphology and synapse formation. […] In addition, by immunoblot we observed that ZM447439 enhanced synaptic protein, synaptophysin, expression in both the presence and absence of trophic factors.
# iPSCs derived MNs = assay: iPSC derived MNs co-cultured with wild type or SOD1^G93A astrocytes; type: cell-based, human; settings: iPSCs derived MNs cultured on wild type or SOD1^G93A astrocytes
# From the text: as §5
# synaptophysin = assay: Synaptophysin immunoblot, iPSC-derived MNs; type: cell-based, human; settings: both the presence and absence of trophic factors
# From the text: as §5
# [7] = tested on: wild-type (Hb9::GFP) mouse ESC derived MNs; assay: MN survival after trophic factor withdrawal, mixed culture; type: cell-based
# From the text: as §3, with “maximum. […]” for “maximum.”
# as §4
# iPSC-derived MN lines [8] = assay: Synapse formation of iPSC-derived MNs; type: cell-based, human; settings: all iPSC-derived MN lines, absence of trophic factor
# From the text: as §5
# [9] = tested on: phosphorylated BAD (pBAD); assay: Phosphorylated BAD immunostaining in surviving MNs; type: cell-based, mouse; settings: absence of TFs
# [10] = tested on: synaptophysin in SOD1^G93A/Hb9::GFP MN cultures; assay: Synaptophysin immunoblotting; type: cell-based, mouse
structure (smiles),measurement,setting,value
"COc1cc2c(Nc3ccc(NC(=O)c4ccccc4)cc3)ncnc2cc1OCCCN1CCOCC1 [ZM447439, N-[4-[[6-Methoxy-7-[3-(4-morpholinyl)propoxy]-4-quinazolinyl]amino]phenyl]benzamide]","MN morphology (total neurite length, maximum neurite length, number of extremities and number of nodes per MN)",Hb9::GFP MNs [1],preserved all of these features
same,"MN morphology (total neurite length, maximum neurite length, number of extremities and number of nodes per MN)",SOD1^G93A/Hb9::GFP MNs [2],preserved all of these features
same,MN survival in astrocyte co-culture,Hb9::GFP MNs [3],improved
same,MN survival in astrocyte co-culture,SOD1^G93A/Hb9::GFP MNs [4]; SOD1^G93A/Hb9::GFP MN co-cultured with SOD1^G93A astrocytes,less of an increase in survival
same,MN survival in astrocyte co-culture,SOD1^G93A/Hb9::GFP MNs [4]; SOD1^G93A/Hb9::GFP MNs on WT or SOD1^G93A astrocytes,improved
same,basal MN death,"[5]; in presence of neurotrophic factors, day 7, 14 & 21",prevented
same,survival of MNs (number of surviving MNs),"[5]; trophic factor withdrawal, 3 days, SOD1^G93A/Hb9::GFP MNs",consistently increased the survival of MNs; also recorded: most potent and robust at increasing survival
same,long term MN survival,"[5]; trophic factors removed, day 7, 14 & 21, SOD1^G93A/Hb9::GFP MNs",increased survival
same,morphology,iPSC-derived MN lines [6],preserved both
same,MN survival in astrocyte co-culture,iPSCs derived MNs,improved survival
same,synaptic protein synaptophysin expression,synaptophysin,enhanced
same,"survival effect in dose dependent assay, comparison among AKIs","[7]; mixed MN culture, FIG. 1B",most effective and potent in promoting MN survival; also recorded: most effective and potent of all AKIs assayed
same,survival of MNs (number of surviving MNs),"[7]; trophic factor withdrawal, 3 days, wild-type Hb9::GFP MNs",consistently increased the survival of MNs; also recorded: most potent and robust at increasing survival
same,long term MN survival,"[7]; trophic factors removed, day 7, 14 & 21, Hb9::GFP MNs",increased survival
same,synapse formation,iPSC-derived MN lines [8],preserved both
same,levels of phosphorylated BAD (pBAD),[9],increased levels
same,expression of synaptic protein synaptophysin,[10],increased expression

# — patent publication US20160287602A1, “METHODS FOR PROMOTING MOTOR NEURON SURVIVAL” (PRESIDENT AND FELLOWS OF HARVARD COLLEGE, priority 2013, published 2016)
